In paper PMC7206119, “RIP1 inhibition blocks inflammatory diseases but not tumor growth or metastases” (Cell Death and Differentiation, 2019) one finds remaining binding data, which are given here for 1 compound.

Targets include CDK4 (Homo sapiens, UniProt P11802); ROCK1 (Homo sapiens, UniProt Q13464); BTK (Homo sapiens, UniProt Q06187); BRSK1 (Homo sapiens, UniProt Q8TDC3); CAMK4 (Homo sapiens, UniProt Q16566); TGFBR1 (Homo sapiens, UniProt P36897); MAPKAPK2 (Homo sapiens, UniProt P49137); PIK3CA(M1043I) (Homo sapiens, UniProt P42336, M1043I); GRK1 (Homo sapiens, UniProt Q15835); ITK (Homo sapiens, UniProt Q08881); PIM1 (Homo sapiens, UniProt P11309); ULK1 (Homo sapiens, UniProt O75385); WEE1 (Homo sapiens, UniProt P30291); GRK2 (Homo sapiens, UniProt P25098).

Holding throughout (assay): biochemical
What all share (set-up): DiscoverX kinase panel, active-site competition binding (KINOMEscan type), percent of control at one concentration
Common to all, as to details: competition binding, percent of control

The next test has as its target T1, ZAK (Homo sapiens, UniProt Q9NYL2).
T1 construct: gene MAP3K20

For the next test, the target named is T2, SNARK (Homo sapiens, UniProt Q9H093).
T2 construct: gene NUAK2

A further test has as its target T3, MEK1 (Homo sapiens, UniProt Q02750).
T3 construct: gene MAP2K1

A further test concerns the target T4, ABL1-nonphosphorylated (Homo sapiens, UniProt P00519).
T4 construct: nonphosphorylated

Another test addresses T5, p38-delta (Homo sapiens, UniProt O15264).
T5 construct: gene MAPK13

The target of test [1] is T6, RSK2(Kin.Dom.2-C-terminal) (Homo sapiens, UniProt P51812).
T6 construct: gene RPS6KA3; Kin.Dom.2-C-terminal

The target in test [2] is T7, ABL1(E255K)-phosphorylated (Homo sapiens, UniProt P00519, E255K).
T7 construct: phosphorylated

The structures appear in SMILES notation.

T6 sequence (P51812 whole entry): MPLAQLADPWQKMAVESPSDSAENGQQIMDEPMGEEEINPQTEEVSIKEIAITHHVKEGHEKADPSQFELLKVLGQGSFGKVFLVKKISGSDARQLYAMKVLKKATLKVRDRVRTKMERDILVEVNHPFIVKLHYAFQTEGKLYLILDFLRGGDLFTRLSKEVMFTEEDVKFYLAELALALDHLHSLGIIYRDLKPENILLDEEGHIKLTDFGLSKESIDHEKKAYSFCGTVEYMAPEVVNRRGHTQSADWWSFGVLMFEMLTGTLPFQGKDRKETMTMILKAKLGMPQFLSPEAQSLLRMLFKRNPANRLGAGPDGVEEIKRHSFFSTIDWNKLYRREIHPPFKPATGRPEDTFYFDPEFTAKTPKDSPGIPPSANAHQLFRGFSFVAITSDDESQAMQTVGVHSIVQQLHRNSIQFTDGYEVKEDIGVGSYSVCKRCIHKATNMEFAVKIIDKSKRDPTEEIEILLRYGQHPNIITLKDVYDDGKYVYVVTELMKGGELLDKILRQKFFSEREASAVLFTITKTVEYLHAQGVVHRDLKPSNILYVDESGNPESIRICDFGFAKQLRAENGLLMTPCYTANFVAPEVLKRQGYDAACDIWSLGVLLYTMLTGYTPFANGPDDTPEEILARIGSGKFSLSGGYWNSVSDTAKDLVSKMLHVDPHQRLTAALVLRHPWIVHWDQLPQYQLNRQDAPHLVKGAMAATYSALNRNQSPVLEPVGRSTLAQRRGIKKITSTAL
T1 sequence (Q9NYL2 whole entry): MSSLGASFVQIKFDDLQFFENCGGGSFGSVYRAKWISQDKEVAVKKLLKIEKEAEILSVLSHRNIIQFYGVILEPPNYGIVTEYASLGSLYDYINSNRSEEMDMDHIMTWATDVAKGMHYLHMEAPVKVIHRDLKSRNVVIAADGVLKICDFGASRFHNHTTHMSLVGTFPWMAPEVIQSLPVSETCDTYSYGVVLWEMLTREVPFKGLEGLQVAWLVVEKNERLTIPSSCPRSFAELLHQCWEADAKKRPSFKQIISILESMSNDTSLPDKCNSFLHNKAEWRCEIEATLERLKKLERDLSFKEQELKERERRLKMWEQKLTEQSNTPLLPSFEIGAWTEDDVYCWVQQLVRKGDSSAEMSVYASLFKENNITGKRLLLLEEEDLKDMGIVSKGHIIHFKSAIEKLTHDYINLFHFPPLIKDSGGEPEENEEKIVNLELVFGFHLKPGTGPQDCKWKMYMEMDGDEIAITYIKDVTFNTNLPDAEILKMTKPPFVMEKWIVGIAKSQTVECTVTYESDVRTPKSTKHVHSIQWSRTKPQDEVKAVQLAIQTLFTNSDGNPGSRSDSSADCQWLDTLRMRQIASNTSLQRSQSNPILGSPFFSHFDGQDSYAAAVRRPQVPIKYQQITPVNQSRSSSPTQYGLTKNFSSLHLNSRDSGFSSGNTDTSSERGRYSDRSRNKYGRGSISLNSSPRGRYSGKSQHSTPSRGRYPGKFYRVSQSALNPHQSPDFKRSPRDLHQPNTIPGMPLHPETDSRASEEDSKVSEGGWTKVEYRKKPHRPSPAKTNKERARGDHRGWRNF
Chain of ULK1 (O75385 whole entry): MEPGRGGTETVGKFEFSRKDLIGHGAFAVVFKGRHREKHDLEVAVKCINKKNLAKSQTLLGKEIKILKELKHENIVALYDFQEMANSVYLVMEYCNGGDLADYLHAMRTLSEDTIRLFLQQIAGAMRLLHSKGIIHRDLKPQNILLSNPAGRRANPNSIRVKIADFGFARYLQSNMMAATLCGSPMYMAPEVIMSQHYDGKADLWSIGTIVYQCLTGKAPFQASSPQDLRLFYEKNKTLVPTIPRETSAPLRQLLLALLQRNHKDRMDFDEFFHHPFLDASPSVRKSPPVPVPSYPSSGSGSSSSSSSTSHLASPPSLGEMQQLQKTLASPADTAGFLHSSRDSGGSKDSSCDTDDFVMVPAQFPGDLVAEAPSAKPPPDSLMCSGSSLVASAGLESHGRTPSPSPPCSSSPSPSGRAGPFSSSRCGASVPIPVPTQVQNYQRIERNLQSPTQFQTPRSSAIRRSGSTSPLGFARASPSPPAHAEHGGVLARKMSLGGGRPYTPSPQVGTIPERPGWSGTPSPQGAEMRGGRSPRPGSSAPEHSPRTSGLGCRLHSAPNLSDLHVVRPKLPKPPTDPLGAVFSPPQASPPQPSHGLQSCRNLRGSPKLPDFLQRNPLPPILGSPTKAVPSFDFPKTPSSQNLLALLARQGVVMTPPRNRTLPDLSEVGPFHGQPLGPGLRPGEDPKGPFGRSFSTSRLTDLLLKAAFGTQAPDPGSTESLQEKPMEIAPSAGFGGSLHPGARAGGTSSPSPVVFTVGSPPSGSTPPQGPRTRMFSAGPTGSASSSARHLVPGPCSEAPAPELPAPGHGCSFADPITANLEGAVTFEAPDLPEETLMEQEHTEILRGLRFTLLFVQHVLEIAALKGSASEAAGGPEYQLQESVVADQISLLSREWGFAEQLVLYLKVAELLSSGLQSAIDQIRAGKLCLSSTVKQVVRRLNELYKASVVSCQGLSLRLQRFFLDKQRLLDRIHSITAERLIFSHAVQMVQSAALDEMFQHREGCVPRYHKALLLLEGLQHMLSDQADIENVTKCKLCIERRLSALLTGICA
Chain of GRK2 (P25098 whole entry): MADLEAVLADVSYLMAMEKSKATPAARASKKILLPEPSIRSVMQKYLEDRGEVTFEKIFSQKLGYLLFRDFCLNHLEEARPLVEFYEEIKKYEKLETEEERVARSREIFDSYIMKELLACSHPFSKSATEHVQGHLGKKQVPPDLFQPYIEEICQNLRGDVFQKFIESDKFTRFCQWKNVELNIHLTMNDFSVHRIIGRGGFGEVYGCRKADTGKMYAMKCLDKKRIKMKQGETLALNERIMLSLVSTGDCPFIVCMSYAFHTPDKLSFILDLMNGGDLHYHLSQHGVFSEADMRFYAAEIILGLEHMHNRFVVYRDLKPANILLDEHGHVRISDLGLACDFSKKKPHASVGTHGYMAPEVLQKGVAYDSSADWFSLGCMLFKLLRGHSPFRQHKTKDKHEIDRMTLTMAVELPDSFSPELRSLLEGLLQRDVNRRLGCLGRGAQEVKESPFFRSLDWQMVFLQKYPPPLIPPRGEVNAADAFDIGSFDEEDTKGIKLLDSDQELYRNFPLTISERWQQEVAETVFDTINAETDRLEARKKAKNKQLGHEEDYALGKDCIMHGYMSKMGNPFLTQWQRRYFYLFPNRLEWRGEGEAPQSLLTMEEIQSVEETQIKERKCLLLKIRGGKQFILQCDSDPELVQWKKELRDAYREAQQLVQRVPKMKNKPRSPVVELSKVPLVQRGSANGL
Chain of ROCK1 (Q13464 whole entry): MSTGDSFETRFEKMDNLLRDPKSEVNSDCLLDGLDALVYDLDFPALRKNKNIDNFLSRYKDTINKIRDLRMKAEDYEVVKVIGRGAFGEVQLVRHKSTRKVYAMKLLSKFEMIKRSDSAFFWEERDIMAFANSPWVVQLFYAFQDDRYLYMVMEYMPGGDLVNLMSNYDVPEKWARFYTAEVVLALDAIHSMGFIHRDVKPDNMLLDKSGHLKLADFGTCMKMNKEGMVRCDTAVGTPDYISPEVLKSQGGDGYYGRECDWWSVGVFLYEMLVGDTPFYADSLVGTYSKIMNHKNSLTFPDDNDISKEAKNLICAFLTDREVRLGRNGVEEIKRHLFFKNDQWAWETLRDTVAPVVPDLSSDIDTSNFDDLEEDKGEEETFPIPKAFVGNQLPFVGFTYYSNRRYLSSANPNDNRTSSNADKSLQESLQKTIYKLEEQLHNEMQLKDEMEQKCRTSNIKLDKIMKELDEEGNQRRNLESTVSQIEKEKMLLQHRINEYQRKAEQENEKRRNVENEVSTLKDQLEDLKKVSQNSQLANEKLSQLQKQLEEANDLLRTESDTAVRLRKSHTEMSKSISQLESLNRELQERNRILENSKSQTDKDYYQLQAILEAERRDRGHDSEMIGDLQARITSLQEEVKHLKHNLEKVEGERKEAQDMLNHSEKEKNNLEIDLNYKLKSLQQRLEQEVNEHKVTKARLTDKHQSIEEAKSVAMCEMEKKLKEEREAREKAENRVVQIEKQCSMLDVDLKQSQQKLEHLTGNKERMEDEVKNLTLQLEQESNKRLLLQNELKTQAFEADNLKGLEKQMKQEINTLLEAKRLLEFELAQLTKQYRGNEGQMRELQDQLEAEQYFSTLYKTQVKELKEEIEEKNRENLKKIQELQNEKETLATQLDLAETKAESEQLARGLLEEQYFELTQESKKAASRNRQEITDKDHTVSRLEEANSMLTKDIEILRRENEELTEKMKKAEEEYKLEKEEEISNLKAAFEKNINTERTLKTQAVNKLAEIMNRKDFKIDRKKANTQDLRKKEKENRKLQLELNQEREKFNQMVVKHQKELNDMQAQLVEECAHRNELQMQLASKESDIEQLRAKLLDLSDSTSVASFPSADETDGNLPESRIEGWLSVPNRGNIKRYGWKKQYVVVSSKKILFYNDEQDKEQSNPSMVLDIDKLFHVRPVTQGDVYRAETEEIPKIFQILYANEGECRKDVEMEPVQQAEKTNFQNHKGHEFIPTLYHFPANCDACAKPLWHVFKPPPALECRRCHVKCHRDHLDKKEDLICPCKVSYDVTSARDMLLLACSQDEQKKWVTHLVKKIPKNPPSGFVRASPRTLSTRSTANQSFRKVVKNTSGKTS
T3 sequence (Q02750 whole entry): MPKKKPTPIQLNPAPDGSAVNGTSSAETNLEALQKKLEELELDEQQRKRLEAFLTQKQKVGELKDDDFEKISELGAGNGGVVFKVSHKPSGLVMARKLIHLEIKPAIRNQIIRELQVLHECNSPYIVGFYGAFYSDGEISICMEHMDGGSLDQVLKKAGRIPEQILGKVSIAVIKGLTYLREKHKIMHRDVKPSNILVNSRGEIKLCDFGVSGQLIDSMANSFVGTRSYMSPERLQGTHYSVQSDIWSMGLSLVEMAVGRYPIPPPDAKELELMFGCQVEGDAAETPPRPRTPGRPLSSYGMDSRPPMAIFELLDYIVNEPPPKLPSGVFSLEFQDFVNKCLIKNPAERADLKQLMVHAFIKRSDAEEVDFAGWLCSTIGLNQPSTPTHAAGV

For `COc1cc2c(cn1)N(C)C(=O)[C@@H](NC(=O)c1nc3n(n1)[C@H](c1ccccc1)CC3)CC2` [GNE684, (S)-N-((S)-7-methoxy-1-methyl-2-oxo-2,3,4,5-tetrahydro-1H-pyrido[3,4-b]azepin-3-yl)-5-phenyl-6,7-dihydro-5H-pyrrolo[1,2-b][1,2,4]triazole-2-carboxamide], the remaining binding at 10 µM was 100% at CDK4; 100% at ROCK1; 100% on BTK; 100% at BRSK1; 86% at CAMK4; 97% on TGFBR1. Also, the remaining binding at 10 µM at MAPKAPK2 came to 100%; at ZAK it was 99%; on SNARK, 100%; at PIK3CA(M1043I), 99%; on MEK1 it was 91%; on GRK1 it was 67%. Further, the remaining binding at 10 µM on ITK worked out at 100%; on ABL1-nonphosphorylated, 67%; on p38-delta, 92%; at PIM1, 100%; in [1], 85%; on ULK1 it was 98%. Also, the remaining binding at 10 µM came to 69% at WEE1, 94% on GRK2 and 91% in test [2].
